According to patent US4371544A, “Pharmaceutical composition containing 1,1,3,5-substituted biuret compound” (Taiho Pharmaceutical Company Limited, priority 1979, dated 1983):
Read-outs that look alike come from different tables or passages of the source.

Experiments:
ddy strain of male mice [1] = assay: Acute toxicity (oral, mice, 7 days observation); assay type: in vivo
Protocol: (§1) Next, several tests for determining the pharmacological properties, in that acute toxicity, anti-pyretic activity, analgesic activity and anti-inflammatory activity of the present 1,1,3,5-substituted biuret compounds of the formula (1) were conducted and the test results are shown in Table (2). In the tests, each compounds to be tested was used as a suspension in 0.25% carboxymethylcellulose solution. Methods for testing are explained as follows:
The ddy strain of male mice (body weight, 20-25 g) were used as test animals. The mice were fasted overnight and the compound to be tested was administered orally. […] The lethal dose (mg/kg, body weight) of the test compound was determined in connection with the death number of mice/the number of mice tested. In Table 2, the values indicated with Δ marks are 50% lethal dose, LD50 (mg/kg, body weight).

[2] = test system: Wistar strain of male rats; assay: Anti-inflammatory activity (acute carrageenin-induced inflammatory test, hindpaw); assay type: in vivo, rat (Wistar); conditions: for inhibition in vivo at 100 mg/kg / inhibition in vivo at 200 mg/kg: Rattus norvegicus, read-out: Anti-inflammatory activity, inflammation inhibitory ratio
Protocol: as §1
According to the method of acute carrageenin-induced inflammatory test [Folia Pharmacologia Japonica, Vol. 56, pp. 575 (1960)], the Wistar strain of male rats (body weight, 150-180 g) were used as test animals. The rats were fasted overnight, 100 mg/kg body weight of the test compound was administered orally, then 1 hour after the administration, 0.1 ml of 1% carrageenin solution, as the inflammation inducing agent, was injected subcutaneously to the hindpaw of the rat and the volume of the hindpaw was measured at time sequences, Anti-inflammatory activity of the test compound was calculated as inflammation inhibitory ratio (%) at 3 hours after the injection of inflammation inducing agent.

ddy strain of male mice [3] = assay: Analgesic activity, Haffner method (morphine threshold dose, clamp); assay type: in vivo, mouse (ddy); conditions: for inhibition in vivo at 200 mg/kg / inhibition in vivo at 100 mg/kg / ED50: Mus musculus; for inhibition in vivo at 200 mg/kg / inhibition in vivo at 100 mg/kg: read-out: Analgesic activity, Haffner method, inhibitory ratio; for ED50: oral, Δ mark, range in parentheses
Protocol: as §1
According to the modified method reported by Fujimura et. al., [Bulletin of the Institute for Chemical Research, Kyoto University, No. 25, pp. 36 (1951)], the ddy strain of male mice (body weight, 20-25 g) were used as test animals. The mice were fasted overnight, 100 mg/kg body weight of the test compound was administered orally, then 45 minutes after the administration, the threshold amount (1.5-2.5 mg/kg body weight) of morphine hydrochloride was injected subcutaneously. Then 1-hour pain reaction of the mouse caused by a clamp was observed. Analgesic activity of the test compound was calculated as the inhibitory ratio (%). In Table 2, the values in parentheses show the data obtained from the test by using the dosage other than 100 mg/kg body weight. Further, the values indicated with Δ marks show 50% effective dose, ED50 (mg/kg body weight).

ddy strain of male mice [4] = assay: Analgesic activity, acetic acid-induced stretching method; assay type: in vivo, mouse (ddy); conditions: for ED50: oral, Δ mark, range in parentheses
Protocol: as §1
According to the method reported by Koster et al., [Fed. Proc., Vol. 18, pp. 412 (1959)], the ddy strain of male mice (body weight, 20-25 g) were used as test animals. The mice were fasted overnight, 100 mg/kg body weight of the test compound was administered orally, then 1 hour after the administration, 0.2 ml of 0.7% acetic acid solution was injected intraperitoneally. The acetic acid-induced stretching symptom of mouse was observed. Analgesic activity of the test compound was calculated as the inhibitory ratio (%). In Table 2, the values in parentheses show the data obtained from the test by using the dosage other than 100 mg/kg body weight. Further, the values indicated with Δ marks show 50% effective dose, ED50 (mg/kg body weight).

[5] = test system: Wistar strain of male rats; assay: Anti-pyretic activity (dry-yeast-induced fever); assay type: in vivo, rat (Wistar); conditions: oral (dose not given), up to 4 hours after administration
Protocol: as §1
According to the method reported by Tanabe [Folia Pharmacologia Japonica, Vol. 73, pp. 803 (1977)], the Wistar strain of male rats (150-180 g, body weight) were used as test animals. The rats were fasted overnight, and 1 ml/100 g (body weight) of 10% dry-yeast suspension were subcutaneously injected on the back of the rats. Five hours after the injection, the test compound was administered orally, then the body temperature of the rat was measured at time sequences. Anti-pyretic activity of the test compound was determined as the FI (febril index) by integrating pyrogenetic curve up to 4 hours after the administration of the test compound with time, and indicated as inhibitory ratio (%) shown by the following formula, [formula]

[6] = 100 mg/kg oral, 3 hours after carrageenin
[7] = Mus musculus, po, read-out: Analgesic activity, acetic acid-induced stretching method, inhibitory ratio
[8] = 100 mg/kg oral, 45 minutes before morphine hydrochloride
[9] = 100 mg/kg oral, 1 hour before acetic acid

CN(C)C(=O)NC(=O)Nc1ccccc1 [Compound No. 1]
Acute toxicity: death number of mice/number of mice tested (ddy strain of male mice [1]; mouse, in vivo): 0/4 | inhibition in vivo at 100 mg/kg [2, 6]: 42% | inhibition in vivo at 200 mg/kg (ddy strain of male mice [3]; 200 mg/kg oral): 50% | inhibition in vivo at 100 mg/kg (ddy strain of male mice [4]; [7]): 50%

COc1ccc(NC(=O)NC(=O)N(C)C)cc1 [Compound No. 4, 1,1-Dimethyl-5-(4-methoxyphenyl)biuret]
Acute toxicity: death number of mice/number of mice tested (ddy strain of male mice [1]; 2000 mg/kg oral): 0/4 | inhibition in vivo at 100 mg/kg ([2]; po, 3 h): 43% | inhibition in vivo at 100 mg/kg (ddy strain of male mice [3]; [8]): 50% | inhibition in vivo at 100 mg/kg (ddy strain of male mice [4]; [7]): 75%

Cc1ccc(NC(=O)NC(=O)N(C)C)cc1 [Compound No. 5]
Acute toxicity: death number of mice/number of mice tested (ddy strain of male mice [1]; 2000 mg/kg oral): 0/4 | inhibition in vivo at 100 mg/kg ([2]; po, 2 h): 23% | inhibition in vivo at 100 mg/kg (ddy strain of male mice [4]; [7]): 25%

CN(C)C(=O)N(C)C(=O)Nc1ccccc1 [Compound No. 6, 1,1,3-trimethyl-5-phenylbiuret]
Anti-inflammatory activity, inflammation inhibitory ratio [2, 6]: 59% | Anti-pyretic activity, inhibitory ratio (febril index) [5]: 80% | ED50 (ddy strain of male mice [3]): 68 mg/kg | ED50 (ddy strain of male mice [4]; Mus musculus): 75 mg/kg

CN(C)C(=O)N(C)C(=O)Nc1ccc(Cl)cc1 [Compound No. 12, 1,1,3-Trimethyl-5-(4-chlorophenyl)biuret]
Anti-inflammatory activity, inflammation inhibitory ratio [2, 6]: 47% | Anti-pyretic activity, inhibitory ratio (febril index) [5]: 84% | ED50 (ddy strain of male mice [3]): 20 mg/kg | ED50 (ddy strain of male mice [4]; Mus musculus): 12 mg/kg

CCN(C)C(=O)NC(=O)Nc1ccccc1 [Compound No. 43, 1-ethyl-1-methyl-5-phenylbiuret]
Acute toxicity: death number of mice/number of mice tested (ddy strain of male mice [1]; 2000 mg/kg oral): 0/4 | inhibition in vivo at 200 mg/kg ([2]; 200 mg/kg oral, 3 hours after carrageenin): 72% | inhibition in vivo at 200 mg/kg (ddy strain of male mice [3]; 200 mg/kg oral): 12.5% | inhibition in vivo at 100 mg/kg (ddy strain of male mice [4]; Mus musculus, 100 mg/kg oral, 1 hour before acetic acid, read-out: Analgesic activity, acetic acid-induced stretching method, inhibitory ratio): 50%

CN(C)C(=O)N(C)C(=O)Nc1ccc([N+](=O)[O-])cc1 [compound 20, 1,1,3-Trimethyl-5-(4-nitrophenyl)biuret]
Acute toxicity: death number of mice/number of mice tested (ddy strain of male mice [1]; 500 mg/kg oral): 2/4 | Anti-inflammatory activity, inflammation inhibitory ratio [2, 6]: 32% | Anti-pyretic activity, inhibitory ratio (febril index) [5]: 26% | Analgesic activity, Haffner method, inhibitory ratio (ddy strain of male mice [3]; [8]): 50%

COc1cc(NC(=O)N(C)C(=O)N(C)C)cc(OC)c1OC [compound 25, 1,1,3-Trimethyl-5-(3,4,5-trimethoxyphenyl)biuret]
Acute toxicity: death number of mice/number of mice tested (ddy strain of male mice [1]; 500 mg/kg oral): 0/4 | Acute toxicity: death number of mice/number of mice tested (ddy strain of male mice [1]; 1000 mg/kg oral): 2/4 | Anti-inflammatory activity, inflammation inhibitory ratio [2, 6]: 30% | Anti-pyretic activity, inhibitory ratio (febril index) [5]: 23% | Analgesic activity, Haffner method, inhibitory ratio (ddy strain of male mice [3]; [8]): 62.5%

Cc1c(Cl)cccc1NC(=O)N(C)C(=O)N(C)C [compound 32, 1,1,3-Trimethyl-5-(2-methyl-3-chlorophenyl)biuret]
Acute toxicity: death number of mice/number of mice tested (ddy strain of male mice [1]; 1000 mg/kg oral): 1/4 | Acute toxicity: death number of mice/number of mice tested (ddy strain of male mice [1]; 2000 mg/kg oral): 4/4 | Anti-pyretic activity, inhibitory ratio (febril index) [5]: 45% | Analgesic activity, Haffner method, inhibitory ratio (ddy strain of male mice [3]; [8]): 25% | Analgesic activity, acetic acid-induced stretching method, inhibitory ratio (ddy strain of male mice [4]; [9]): 75%

CC(=O)c1ccc(NC(=O)N(C)C(=O)N(C)C)cc1 [compound 33, 1,1,3-Trimethyl-5-(4-acetylphenyl)biuret]
Acute toxicity: death number of mice/number of mice tested (ddy strain of male mice [1]; 500 mg/kg oral): 0/4 | Acute toxicity: death number of mice/number of mice tested (ddy strain of male mice [1]; 1000 mg/kg oral): 4/4 | Anti-inflammatory activity, inflammation inhibitory ratio ([2]; 100 mg/kg oral, (2 hours)): 31% | Anti-pyretic activity, inhibitory ratio (febril index) [5]: 36% | Analgesic activity, Haffner method, inhibitory ratio (ddy strain of male mice [3]; [8]): 37.5%

CN(C)C(=O)N(C)C(=O)NC1CCCCC1 [compound 35, 1,1,3-Trimethyl-5-cyclohexylbiuret]
inhibition in vivo at 100 mg/kg ([2]; po, 3 h): 24% | Analgesic activity, Haffner method, inhibitory ratio (ddy strain of male mice [3]; [8]): 25% | Analgesic activity, acetic acid-induced stretching method, inhibitory ratio (ddy strain of male mice [4]; 200 mg/kg oral): 87.5%

CCCN(C(=O)Nc1ccccc1)C(=O)N(C)C [compound 37, 1,1-Dimethyl-3-n-propyl-5-phenylbiuret]
Acute toxicity: death number of mice/number of mice tested (ddy strain of male mice [1]; 2000 mg/kg oral): 0/4 | Anti-pyretic activity, inhibitory ratio (febril index) [5]: 12% | Analgesic activity, Haffner method, inhibitory ratio (ddy strain of male mice [3]; 200 mg/kg oral): 62.5% | Analgesic activity, acetic acid-induced stretching method, inhibitory ratio (ddy strain of male mice [4]; [9]): 37.5%

CCCCN(C)C(=O)NC(=O)Nc1ccccc1 [compound 47, 1-Methyl-1-n-butyl-5-phenylbiuret]
Acute toxicity: death number of mice/number of mice tested (ddy strain of male mice [1]; 2000 mg/kg oral): 0/4 | inhibition in vivo at 100 mg/kg [2, 6]: 20% | inhibition in vivo at 100 mg/kg (ddy strain of male mice [3]; [8]): 25% | inhibition in vivo at 100 mg/kg (ddy strain of male mice [4]; [7]): 50%

CCCCN(C)C(=O)N(C)C(=O)Nc1ccccc1 [compound 48, 1,3-Dimethyl-1-n-butyl-5-phenylbiuret]
Acute toxicity: death number of mice/number of mice tested (ddy strain of male mice [1]; 1000 mg/kg oral): 0/4 | Acute toxicity: death number of mice/number of mice tested (ddy strain of male mice [1]; 2000 mg/kg oral): 3/4 | Anti-pyretic activity, inhibitory ratio (febril index) [5]: 35% | Analgesic activity, Haffner method, inhibitory ratio (ddy strain of male mice [3]; [8]): 25% | Analgesic activity, acetic acid-induced stretching method, inhibitory ratio (ddy strain of male mice [4]; [9]): 37.5%

CN(C(=O)Nc1ccccc1)C(=O)N1CC1 [compound 66, 1,1-Ethylene-3-methyl-5-phenylbiuret]
Acute toxicity: death number of mice/number of mice tested (ddy strain of male mice [1]; 250 mg/kg oral): 2/4 | Acute toxicity: death number of mice/number of mice tested (ddy strain of male mice [1]; 500 mg/kg oral): 4/4 | Anti-pyretic activity, inhibitory ratio (febril index) [5]: 28% | inhibition in vivo at 100 mg/kg (ddy strain of male mice [3]; [8]): 25% | inhibition in vivo at 100 mg/kg (ddy strain of male mice [4]; [7]): 62.5%

O=C(NC(=O)N1CCCC1)Nc1ccccc1 [compound 67, 1,1-Tetramethylene-5-phenylbiuret]
Acute toxicity: death number of mice/number of mice tested (ddy strain of male mice [1]; 2000 mg/kg oral): 0/4 | inhibition in vivo at 100 mg/kg ([2]; po, 3 h): 33% | inhibition in vivo at 100 mg/kg (ddy strain of male mice [3]; [8]): 37.5% | inhibition in vivo at 100 mg/kg (ddy strain of male mice [4]; [7]): 50%

O=C(NC(=O)N1CCOCC1)Nc1ccccc1 [compound 71, 1,1-(3-Oxapentamethylene)-5-phenylbiuret]
Acute toxicity: death number of mice/number of mice tested (ddy strain of male mice [1]; mouse, in vivo): 0/4 | inhibition in vivo at 200 mg/kg ([2]; po, 3 h): 23% | inhibition in vivo at 200 mg/kg (ddy strain of male mice [3]; 200 mg/kg oral): 50% | inhibition in vivo at 200 mg/kg (ddy strain of male mice [4]; Mus musculus, 200 mg/kg oral, read-out: Analgesic activity, acetic acid-induced stretching method, inhibitory ratio): 40%

CN(C(=O)Nc1ccccc1)C(=O)N1CCOCC1 [compound 73, 1,1-(3-Oxapentamethylene)-3-methyl-5-phenylbiuret]
Acute toxicity: death number of mice/number of mice tested (ddy strain of male mice [1]; mouse, in vivo): 0/4 | Anti-pyretic activity, inhibitory ratio (febril index) [5]: 17% | inhibition in vivo at 100 mg/kg (ddy strain of male mice [3]; [8]): 25% | inhibition in vivo at 100 mg/kg (ddy strain of male mice [4]; [7]): 50%
